Values joined by “and” are separate entries in the source; they are usually repeats but may differ in a detail not shown here. Identical values can stand only once.
What was measured:
[1] = test system: primary hepatocellular carcinomas (HCCs); test: CA4P-induced tumoral necrosis in DENA-induced primary HCCs on cirrhotic liver (histopathology, microangiography); type: in vivo, rat
Procedure: (§1) Tumor growth was monitored weekly by MRI from the 9th week after DENA administration until the largest tumor lesion attained more than 1 mm in diameter. All recruited tumor-carrying rats received single intravenous injection of CA4P at 10 mg/kg. T2WI, T1WI, DWI and CE-T1WI were performed 4 h before and 12 h after CA4P therapy. Rats were euthanized after the last time point of MRI for postmortem microangiography and histopathology.
After the last MRI scanning, rats were anesthetized by an intraperitoneal injection of pentobarbital at 50 mg/kg. Then laparotomy was performed with blood collected via postcava and abdominal aorta cannulated, through which barium suspension was injected before the entire tumor-bearing liver was excised. With a digital mammography unit (Em-brace; Agfa-Gevaert, Mortsel, Belgium), postmortem hepatic arteriography was made at 26 kV, 32 mAs to document changes in tumor vascularity. The livers were then fixed and sliced into 3-mm sections in the axial plane corresponding to the MR images, and these sections were radiographed at 26 kV, 18 mAs for qualitative analysis.
(§2) After microangiography, the tumor sections were paraffin imbedded, sliced into 5 μm thickness and stained with hematoxylin and eosin (H&E) for microscopic analysis using an Axiovert 200M microscope equipped with an AxioCam MR monochrome digital camera (Carl Zeiss Inc, Gottingen, Germany) and by AxioVision 4.8 software.
Due to the high analogy to the histopathological progression observed in human liver cancer, rat primary HCCs were diagnosed according to the classical histomorphologic features: malignant hepatocytic tumors, often well vascularized, with wide trabeculae (>3 cell layers), noticeable acinar pattern, small cell changes, cytologic atypia, prominent nucleoli, mitotic activity, vascular invasion, absence of Kupffer cells and the loss of the reticulin network. The differentiation of rat HCCs was further classified into Grade I-IV using a modified 4-scale Edmondson and Steiner system [Schlageter et al. cited above].
Digital images of tumor slices at a magnification of 12.5 were used to estimate the percentage of tumor necrosis by ImageJ software [Buijs et al. (2011) J Vasc Intery Radiol 22, 1175-1180]. Briefly, regions of interest were delineated around the entire tumor and the necrotic tumor, respectively, to get ‘necrotic ratio on each section’. For each tumor section, the axial slide representing this tumor block was selected as ‘section area’. Tumor necrosis on each H&E stained slice was estimated independently by 2 pathologists, and calculated with the equation: Intratumoral necrosis ratio (%)=Σ[Necrotic ratio on each section (%)×section area (mm^2)]×section thickness (mm)/[4/3π r^3] (mm^3).
Statistical analyses were carried out by GraphPad Prism (version 7.02, GraphPad Software Inc, La Jolla, Calif., USA). The Pearson's correlation coefficient was calculated between percentile tumoral necrosis calculated by histopathology and tumor diameter measured from T2WI. Numerical data were presented as mean±standard errors of the mean (SEM). Comparison of percentile tumoral necrosis was performed by unpaired […] t-test; results of ADCs between tumor and liver background were compared by two-way ANOVA. A significant difference was concluded for P<0.05.

[2] = test system: micro-HCCs and cirrhotic liver; test: In vivo MRI (DWI-derived ADCperf/ADCdiff, T2WI, CE-T1WI) of micro-HCCs and surrounding cirrhotic liver after CA4P; parameters: species or system rat
Procedure: Images were acquired on a clinical 3.0T MRI scanner (MAGNETOM Prisma; Siemens, Erlangen, Germany) and a human wrist coil (Hand/Wrist 16, A 1.5 T Tim coil, Siemens). Twenty axial images were acquired, with a slice thickness of 2.0 mm and a gap of 0.4 mm. T2-weighted (repetition time, 4000 ms; echo time, 70 ms; flip angle, 150°; field of view, 75×56 mm^2; matrix, 256×192) and T1-weighted (repetition time, 626 ms; echo time, 15 ms; flip angle, 160°; field of view, 75×56 mm^2; matrix, 256×192) turbo spin echo (TSE) images (T2WI, T1WI) were performed weekly to monitor tumor growth, while T2WI, T1WI, diffusion-weighted imaging (DWI) and consecutive contrast-enhanced (CE-) T1WIs were acquired to evaluate CA4P treatment. For DWI, a 2-dimensional SE echo-planar imaging (EPI) sequence (repetition time, 3500 ms; echo time, 62 ms; flip angle, 90°; field of view, 136×74 mm2; matrix, 96×52) with 8 b values (0, 50, 100, 150, 400, 600, 800 and 1000 seconds/mm^2) was acquired. For CE-MRI, a bolus of 0.2 mmol/kg Gd-DOTA was injected before a series of CE-T1WIs were acquired.?
as §1
On DWI, tumor area was manually contoured with an operator-defined region of interest (ROI) on all tumor-containing images. ADC map was calculated from DWI to quantify therapeutic responses by the following mono-exponential formula: Si=S0×exp (−bi×ADC), in which Si is the signal intensity (SI) measured on the ith b value image, bi is the corresponding b value, and S0 is a variable estimating the intrinsic SI (for b=0 seconds/mm^2).
For the calculation of different ADC values, tumors were freehand delineated only on the central slices with the largest cross-sectional areas on the original DWIs at the b value of 1000 s/mm^2, in order to avoid partial volume effects. The delineation of each tumor lesion was copied to all images with different b values automatically. The average SI per tumor and per b value was then determined. The difference between ADClow (b=0, 50 and 100 s/mm^2) and ADChigh (b=600, 800 and 1000 s/mm^2) was defined as ADCperf to reflect the tissue microcapillary perfusion, while ADChigh was defined as ADCdiff [Chen et al. (2007) Methods. 43, 12-20].

rhabdomyosarcomas (R1) = test: CA4P in rats with liver implantation of micro rhabdomyosarcomas (R1); type: in vivo, rat
Text: To verify whether the above unexpected findings can be supported in other types of solid tumors, we intentionally studied CA4P in a group of rats with liver implantation of rhabdomyosarcomas (R1) ranging from 1 to 5 mm in diameter as monitored by noninvasive longitudinal MRI and verified by postmortem techniques. R1 has been extensively studied on VDA research before but in much larger tumor size.

cirrhotic liver = test: Tolerability of the procedures and liver damage in cirrhotic rats after CA4P; type: in vivo, rat
Procedure: as §1, §2

[3] = test system: subcutaneous rhabdomyosarcomas; conditions: large tumors (≥14 cm^3) versus small tumors (<1 cm^3); cited from earlier work
implanted tumor models = conditions: in vivo; cited from earlier work
macro- and micro-cancers = conditions: input of the model; cited from earlier work
[4] = test system: rodent sarcoma, squamous cell carcinoma, fibrosarcoma, human renal cell carcinoma, Kaposi's sarcoma and breast carcinoma; conditions: intraperitoneal injection; cited from earlier work
[5] = micro-HCC, CA4P 10 mg/kg iv, 12 h
[6] = 12 h after CA4P 10 mg/kg iv versus baseline

COc1ccc(/C=C\c2cc(OC)c(OC)c(OC)c2)cc1OP(=O)(O)O [CA4P, combretastatin A-4 phosphate]
tumoral necrosis, hypovascular Grade I-II well-differentiated micro-HCCs (Tumor 1-5) ([1]; histopathology, CA4P 10 mg/kg iv, 12 h): 82.77-96.45%
tumoral necrosis, Grade IV undifferentiated Tumor 7 (vascular lakes) [1, 5]: minimal necrosis
tumoral necrosis, hypervascular Grade III poorly differentiated Tumor 6 [1, 5]: 23.15%
rate of tumoral necrosis in hepatic microcancers higher than in larger HCCs ([1]; micro-HCCs ≤5 mm versus HCCs >5 mm, CA4P 10 mg/kg iv, 12 h): 36.9% and 36.93%
correlation of CA4P-induced tumoral necrosis with tumor diameter, micro-HCCs ([1]; tumors with diameters of ≤5 mm): not linearly correlated
ADCdiff in micro-HCC tumor ([2]; 12 h after CA4P 10 mg/kg iv): slightly rose
ADCdiff in surrounding cirrhotic liver ([2]; 12 h after CA4P 10 mg/kg iv): nearly unchanged
ADCperf (blood perfusion) in micro-HCC tumor [2, 6]: drop of tumor perfusion
ADCperf (blood perfusion) in surrounding cirrhotic liver [2, 6]: sharply decreased blood perfusion
duration of continuous liver ischemia ([2]; cirrhotic liver, CA4P 10 mg/kg iv): at least 12 h
tumoral necrosis on MRI, representative microcancer Tumor 1 ([2]; twelve hours after CA4P treatment, T2WI, ADC, CE-T1WI): massive tumoral necrosis
histology of representative micro R1 tumor (rhabdomyosarcomas (R1); 12 h after CA4P treatment, HE stained microscopy): massive and partial hemorrhagic tumor necrosis
necrosis in liver-implanted R1 lesions (rhabdomyosarcomas (R1); R1 of 1 to 5 mm in diameter, 10 out of 11 lesions): over 90%
survival of rats (cirrhotic liver; DENA gavage, anesthesia, MRI with contrast and intravenous CA4P treatment, 19 rats): All rats survived
necrosis in cirrhotic liver parenchyma (cirrhotic liver; microscopy, 12 h after CA4P 10 mg/kg iv): necrotic foci scattered in the cirrhotic liver
CA4P efficacy in large tumors relative to small tumors [3]: 16.6 fold
onset of tumor vascular disruption (implanted tumor models): less than 1 hour
time to extensive intratumoral necrosis (implanted tumor models): ≤ 12 h
tumour necrosis (α) known to be induced (macro- and micro-cancers): 50-99%

COc1cc2c(c(OC)c1OC)-c1ccc(OP(=O)(O)O)cc1[C@@H](NC(C)=O)CC2 [ZD6126, N-acetylcochinol-O-phosphate]
necrosis in tumors larger than 1 g [4]: ~90%
necrosis in tumors of less than 0.3 g [4]: ~25%

From patent US11918548B2, “Treatment of avascular or hypovascular micro-tumors” (Katholieke Universiteit Leuven, priority 2017, dated 2024)
